Data published in patent US10512654B2, “Pharmaceutical composition including dutasteride and capsule formulation comprising the same” (YUYU PHARMA, INC., priority 2015, dated 2019).
≈ marks a conversion by molar mass, not a printed value.

Columns and labels:
Assay type in all cases: physicochemical
[1] = Solubility of dutasteride in oil (Test Example 1); conditions: for solubility at 24 h: oil or lipid, thermodynamic from solid
Description: In order to measure the solubility of dutasteride in oil, the solubility of dutasteride in soybean oil, castor oil, propylene glycol dicaprylate, propylene glycol dicaprate and propylene glycol monolaurate was measured. In a 10 mL vial, a magnetic bar was placed. After 3 mL of the oil was added thereto, approximately 100 mg of dutasteride was added thereto while stirring under a room temperature (25° C.) condition, and the resultant mixture was stirred with 500 rpm or higher. After stirring for 24 hours, 1 mL of the resultant mixture was taken and separated using a centrifuge, and only the supernatant was taken to quantify the amount of dutasteride dissolved in the oil using liquid chromatography.

[2] = Test I on stability of dutasteride depending on oil type (Test Example 2)
Description: As samples used in the comparison test, a sample dissolving 1.0 mg of dutasteride in 10.0 mg of propylene glycol monolaurate and stored in a transparent vial, and a sample dissolving 1.0 mg of dutasteride in 10.0 mg of caprylic/capric acid mono-di-glyceride and stored in a transparent vial were used.

[3] = Stability of dutasteride in mixture of oil and surfactant (Test Example 3); conditions: storage condition not given
Description: A stability test on the pharmaceutical composition of the comparative example dissolving 0.5 mg of dutasteride in a mixture of 95 mg of propylene glycol monocaprylate and 5 mg of polyoxyl 35 castor oil and stored in a transparent vial, and the pharmaceutical composition of the example including dutasteride, propylene glycol monolaurate and polyoxyl 35 castor oil was carried out by identifying the generation of degradation products under an accelerated condition (40° C., 75% RH) and a stress condition (50° C. 95% RH). As shown in the following Table 5, it was seen that the mixture of propylene glycol monolaurate and a surfactant secured the stability of dutasteride unlike mixtures of surfactant with other oils such as propylene glycol monocaprylate.

[4] = in Propylene Glycol Monocaprylate + Polyoxyl 35 Castor Oil
[5] = in Propylene Glycol Monolaurate + Polyoxyl 35 Castor Oil

For `C[C@]12C=CC(=O)N[C@@H]1CC[C@@H]1[C@@H]2CC[C@]2(C)[C@@H](C(=O)Nc3cc(C(F)(F)F)ccc3C(F)(F)F)CC[C@@H]12` [Dutasteride, 17β-N-(2,5-bis(trifluoromethyl))phenylcarbamoyl-4-aza-5α-androst-1-en-3-one], the “Solubility of Dutasteride” value ([1]; in Propylene Glycol Dicaprylate, room temperature (25° C.), stirring for 24 hours) was 1130 µg/mL, the solubility at 24 h ([1]; in Propylene Glycol Dicaprate, room temperature (25° C.), stirring for 24 hours) was 770 µg/mL (≈ 1.46 mM) and the solubility at 24 h ([1]; in Propylene Glycol Monolaurate, room temperature (25° C.), stirring for 24 hours) was 10400 µg/mL (≈ 19.7 mM). For the same compound, the “Solubility in propylene glycol monolaurate compared to other tested oils” value ([1]; propylene glycol monolaurate vs other tested (general) oils) was no less than 10 times, the “Amount of Degradation Products (%) After 4 Weeks” value (“Amount … (%) After 4 Weeks” below) ([2]; in Caprylic/Capric Acid Mono-Di-Glyceride, Accelerated Condition (40° C., 75% RH)) was 0.94% and the “Amount … (%) After 4 Weeks” value ([2]; in Caprylic/Capric Acid Mono-Di-Glyceride, Stress Condition (50° C., 95% RH)) was 1.75%. For the same compound, the “Amount … (%) After 4 Weeks” value ([2]; in Propylene Glycol Monolaurate, Accelerated Condition (40° C., 75% RH)) was “None”, the “Amount … (%) After 4 Weeks” value ([2]; in Propylene Glycol Monolaurate, Accelerated Condition (40° C., 75% RH), listed as dutasteride) was “not generated” and the “Amount … (%) After 4 Weeks” value ([2]; in Propylene Glycol Monolaurate, Stress Condition (50° C., 95% RH)) was 0.32%. The “Stability of dutasteride in propylene glycol monolaurate compared to caprylic/capric acid mono-di-glyceride” value ([2]; week 4, accelerated (40° C., 75% RH) and stress condition (50° C., 95% RH), in words) was “more superior”, the “Amount of Degradation Products (%) After 3 Weeks” value [3, 4] was 6.2% and the “Amount … (%) After 4 Weeks” value [3, 4] was 12.1%. The “Amount of Degradation Products (%) After 3 Weeks” value [3, 5] was “None” and the “Amount … (%) After 4 Weeks” value [3, 5] was “None”.
